Reference: the NIST ThermoML archive (doi:10.1016/j.tca.2012.05.023)
Numbers after ± are expanded uncertainties.

Assay: molar heat capacity at constant pressure
Conditions: 101.33 kPa, Crystal, Vacuum adiabatic calorimetry

O=C([O-])c1cnccn1.O=C([O-])c1cnccn1.O=C([O-])c1cnccn1.[Cr+3] [chromium(III) pyrazine-2-carboxylate]
Conditions	molar heat capacity at constant pressure [J/K/mol]
78.86 K	155.98 ± 0.97
80 K	158.16 ± 0.98
80.64 K	158.92 ± 0.99
83.3 K	162.11 ± 1
85 K	164.76 ± 1
85.88 K	166.03 ± 1
88.38 K	169.59 ± 1.1
90 K	171.35 ± 1.1
90.8 K	172.28 ± 1.1
93.14 K	175.35 ± 1.1
95 K	177.94 ± 1.1
95.47 K	178.53 ± 1.1
97.73 K	181.47 ± 1.1
99.91 K	184.54 ± 1.1
100 K	184.53 ± 1.1
102.06 K	187.64 ± 1.2
104.19 K	189.79 ± 1.2
105 K	191.12 ± 1.2
106.26 K	192.72 ± 1.2
108.39 K	195.56 ± 1.2
110 K	197.7 ± 1.2
110.39 K	198.32 ± 1.2
112.38 K	200.9 ± 1.2
114.31 K	203.62 ± 1.2
115 K	204.28 ± 1.3
116.37 K	206.2 ± 1.3
118.23 K	208.83 ± 1.3
120 K	210.86 ± 1.3
120.16 K	211.45 ± 1.3
122.08 K	214.08 ± 1.3
125 K	217.43 ± 1.3
125.04 K	217.8 ± 1.3
128.55 K	221.83 ± 1.4
130 K	223.99 ± 1.4
131.51 K	226.29 ± 1.4
134.47 K	230.41 ± 1.4
135 K	230.55 ± 1.4
137.5 K	234.21 ± 1.4
140 K	237.1 ± 1.5
140.45 K	237.72 ± 1.5
143.48 K	241.61 ± 1.5
145 K	243.64 ± 1.5
146.44 K	245.42 ± 1.5
149.4 K	249.27 ± 1.5
150 K	250.18 ± 1.5
152.43 K	252.82 ± 1.6
155 K	256.7 ± 1.6
155.38 K	257.11 ± 1.6
158.34 K	260.91 ± 1.6
160 K	263.21 ± 1.6
161.37 K	264.59 ± 1.6
164.4 K	269.32 ± 1.6
165 K	269.71 ± 1.6
167.42 K	273.11 ± 1.7
170 K	276.2 ± 1.7
170.38 K	276.93 ± 1.7
173.34 K	280.52 ± 1.7
175 K	282.68 ± 1.7
176.44 K	284.26 ± 1.7
179.4 K	287.73 ± 1.8
180 K	289.15 ± 1.8
182.42 K	292.31 ± 1.8
185 K	295.6 ± 1.8
186.48 K	297.74 ± 1.8
190 K	302.03 ± 1.9
190.68 K	302.64 ± 1.9
193.71 K	306.32 ± 1.9
195 K	308.46 ± 1.9
196.73 K	310.4 ± 1.9
199.76 K	313.83 ± 1.9
200 K	314.86 ± 1.9
202.79 K	317.64 ± 1.9
205 K	321.25 ± 2
205.75 K	321.74 ± 2
208.71 K	325.63 ± 2
210 K	327.63 ± 2
211.73 K	329.9 ± 2
214.76 K	333.75 ± 2
215 K	333.98 ± 2
217.79 K	337.53 ± 2.1
220 K	340.32 ± 2.1
220.81 K	341.42 ± 2.1
223.77 K	344.95 ± 2.1
225 K	346.64 ± 2.1
226.8 K	348.56 ± 2.1
229.76 K	352.76 ± 2.1
230 K	352.95 ± 2.1
232.79 K	356.86 ± 2.2
235 K	359.23 ± 2.2
235.75 K	360.47 ± 2.2
238.84 K	363.97 ± 2.2
240 K	365.49 ± 2.2
242.01 K	368.73 ± 2.2
245 K	371.73 ± 2.3
245.86 K	373.07 ± 2.3
249.57 K	377.69 ± 2.3
250 K	377.95 ± 2.3
252.6 K	381.55 ± 2.3
255 K	384.15 ± 2.3
255.7 K	385.19 ± 2.4
258.73 K	388.65 ± 2.4
260 K	390.33 ± 2.4
261.82 K	392.4 ± 2.4
264.85 K	396.6 ± 2.4
265 K	396.49 ± 2.4
267.86 K	400.48 ± 2.4
270 K	402.62 ± 2.5
270.92 K	403.75 ± 2.5
273.93 K	407.18 ± 2.5
275 K	408.73 ± 2.5
276.89 K	410.85 ± 2.5
279.85 K	414.48 ± 2.5
280 K	414.81 ± 2.5
282.87 K	418.25 ± 2.5
285 K	420.87 ± 2.6
285.83 K	421.97 ± 2.6
288.79 K	425.74 ± 2.6
290 K	426.91 ± 2.6
291.89 K	428.76 ± 2.6
294.92 K	432.73 ± 2.6
295 K	432.92 ± 2.6
297.94 K	436.5 ± 2.7
298.15 K	436.69 ± 2.7
300 K	438.9 ± 2.7
300.28 K	439.48 ± 2.7
302.83 K	442.7 ± 2.7
305 K	444.86 ± 2.7
305.99 K	446.12 ± 2.7
309.09 K	450.09 ± 2.7
310 K	450.79 ± 2.7
312.18 K	454.16 ± 2.8
315 K	456.7 ± 2.8
315.35 K	457.58 ± 2.8
318.38 K	461.21 ± 2.8
320 K	462.57 ± 2.8
321.54 K	464.38 ± 2.8
324.64 K	468.15 ± 2.9
325 K	468.42 ± 2.9
327.67 K	471.32 ± 2.9
330 K	474.25 ± 2.9
330.76 K	475.09 ± 2.9
333.79 K	478.57 ± 2.9
335 K	480.04 ± 2.9
336.88 K	481.84 ± 2.9
339.91 K	485.31 ± 3
340 K	485.8 ± 3
343.01 K	488.64 ± 3
345 K	491.54 ± 3
345.97 K	491.76 ± 3
349.05 K	495.84 ± 3
350 K	497.25 ± 3
352.03 K	499.11 ± 3
355 K	502.92 ± 3.1
355.1 K	502.61 ± 3.1
358.14 K	506.45 ± 3.1
360 K	508.57 ± 3.1
361.31 K	510.02 ± 3.1
364.47 K	513.54 ± 3.1
365 K	514.18 ± 3.1
367.57 K	517.31 ± 3.1
370 K	519.77 ± 3.2
370.74 K	520.43 ± 3.2
373.88 K	524.09 ± 3.2
375 K	525.32 ± 3.2
377.03 K	527.59 ± 3.2
380 K	530.85 ± 3.2
380.17 K	530.85 ± 3.2
383.23 K	534.71 ± 3.2
385 K	536.34 ± 3.3
386.16 K	537.95 ± 3.3
389.19 K	541.27 ± 3.3
390 K	541.8 ± 3.3
392.45 K	544.56 ± 3.3
395 K	547.22 ± 3.3
395.47 K	547.81 ± 3.3
400 K	552.62 ± 3.4
